In one series the target is T1, human O-GlcNAcase (Homo sapiens, UniProt O60502).
T1 sequence (O60502 1-916): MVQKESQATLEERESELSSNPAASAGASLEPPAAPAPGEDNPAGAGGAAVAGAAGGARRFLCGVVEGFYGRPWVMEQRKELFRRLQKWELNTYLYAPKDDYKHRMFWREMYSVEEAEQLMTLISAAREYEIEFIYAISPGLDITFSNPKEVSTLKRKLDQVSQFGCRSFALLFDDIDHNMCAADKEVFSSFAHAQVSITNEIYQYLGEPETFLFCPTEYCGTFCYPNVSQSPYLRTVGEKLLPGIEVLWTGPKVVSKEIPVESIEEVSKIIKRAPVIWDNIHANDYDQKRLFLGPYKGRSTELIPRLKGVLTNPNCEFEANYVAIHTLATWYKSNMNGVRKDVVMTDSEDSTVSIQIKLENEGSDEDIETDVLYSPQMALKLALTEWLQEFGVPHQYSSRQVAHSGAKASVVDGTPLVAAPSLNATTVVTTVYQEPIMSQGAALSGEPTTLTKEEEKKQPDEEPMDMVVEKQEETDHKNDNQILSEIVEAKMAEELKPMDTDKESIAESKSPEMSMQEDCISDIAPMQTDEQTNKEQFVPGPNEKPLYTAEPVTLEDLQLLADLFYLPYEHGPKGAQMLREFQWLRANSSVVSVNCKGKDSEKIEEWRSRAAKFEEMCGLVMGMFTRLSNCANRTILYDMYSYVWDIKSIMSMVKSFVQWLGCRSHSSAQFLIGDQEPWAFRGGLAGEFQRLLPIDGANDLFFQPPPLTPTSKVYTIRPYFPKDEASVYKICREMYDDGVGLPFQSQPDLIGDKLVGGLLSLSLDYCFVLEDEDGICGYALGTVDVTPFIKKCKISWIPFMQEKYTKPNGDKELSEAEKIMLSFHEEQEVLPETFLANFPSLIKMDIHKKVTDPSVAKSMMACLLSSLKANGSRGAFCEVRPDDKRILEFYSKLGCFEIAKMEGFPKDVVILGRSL
Kind of series: Fluorescence-based assay for KI values for inhibition of O-GlcNAcase activity. The format is biochemical. The settings on record: purified human O-GlcNAcase, 4-methylumbelliferyl GlcNAc substrate, pH 7.0, Cheng-Prusoff; read-out: Fluorescence-based hOGA Ki. How it is done:
Assay for Determination of KI Values for Inhibition of O-GlcNAcase Activity
Experimental Procedure for Kinetic Analyses:
Enzymatic reactions were carried out in a reaction containing 50 mM NaH2PO4, 100 mM NaCl and 0.1% BSA (pH 7.0) using 2 mM 4-Methylumbelliferyl N-acetyl-β-D-glucosaminide dihydrate (Sigma M2133) dissolved in ddH2O, as a substrate. The amount of purified human O-GlcNAcase enzyme used in the reaction was 0.7 nM. Test compound of varying concentrations was added to the enzyme prior to initiation of the reaction. The reaction was performed at room temperature in a 96-well plate and was initiated with the addition of substrate. The production of fluorescent product was measured every 60 sec for 45 min with a Tecan Infinite M200 plate-reader with excitation at 355 nm and emission detected at […], with 4-Methylumbelliferone (Sigma M1381) used to produce a standard curve. The slope of product production was determined for each concentration of compound tested and plotted, using standard curve fitting algorithms for sigmoidal dose response curves. The values for a four parameter logistic curve fit of the data were determined.
KI values were determined using the Cheng-Prusoff equation; the Km of O-GlcNAcase for substrate was 0.2 mM.

Series [1] can be described thus: Apparent permeability (Papp), bi-directional transport. In kind it is in vitro ADME. The settings on record: pig, LLC-PK1, t=3 h, average of A to B and B to A, read-out: Papp LLC-PK1 cells. How it is done: Assay for Determination of Apparent Permeability (Papp)
Bi-directional transport is evaluated in LLC-PK1 cells in order to determine apparent permeability (Papp). LLC-PK1 cells can form a tight monolayer and therefore can be used to assess vectorial transport of compounds from basolateral to apical (B→A) and from apical to basolateral (A→B).
To determine Papp, LLC-PK1 cells are cultured in 96-well transwell culture plates (Millipore). Solutions containing the test compounds (1 μM) are prepared in Hank's Balanced Salt Solution with 10 mM HEPES. Substrate solution (150 μL) is added to either the apical (A) or the basolateral (B) compartment of the culture plate, and buffer (150 μL) is added to the compartment opposite to that containing the compound. At t=3 h, 50 μL samples are removed from both sides of monolayers dosed with test compound and placed in 96 well plates, scintillant (200 μL) or internal standard (100 μL labetolol 1 μM) is added to the samples and concentration is determined by liquid scintillation counting in a MicroBeta Wallac Trilux scintillation counter (Perkin Elmer Life Sciences, Boston, Mass.) or by LCMS/MS (Applied Biosystems SCIEX API 5000 triple quadruple mass spectrometer). [^3H]Verapamil (1 μM) is used as the positive control. The experiment is performed in triplicate.
The apparent permeability, Papp, is calculated by the following formula for samples taken at t=3 h:
[formula] Where: Volume of Receptor Chamber is 0.15 mL; Area of membrane is 0.11 cm^2; the Initial Concentration is the sum of the concentration measured in the donor plus concentration measured in receiver compartments at t=3 h; A in Concentration is concentration in the receiver compartment at 3 h; and A in Time is the incubation time (3×60×60=10800 s). Papp is expressed as 10^−6 cm/s. The Papp (LLC-PK1 cells) are the average of the Papp for transport from A to B and Papp for transport from B to A at t=3 h: […]

SMILES strings stand for the structures.

What is called Ki is the dissociation constant of the complex between target and ligand, obtained from inhibition or displacement. Consider `CC(=O)NC[C@@H]1[C@@H](O)[C@H](O)[C@@H](CO)N1Cc1ccccn1` [Example 8, N-(((2R,3R,4R,5R)-3,4-dihydroxy-5-(hydroxymethyl)-1-(pyridin-2-ylmethyl)pyrrolidin-2-yl)methyl)acetamide], for which the Ki on human O-GlcNAcase was 3.02 µM.
As to `CC(=O)NC[C@H]1N[C@H](CO)[C@@H](O)[C@@H]1O` [reference compound], the inhibitory constant (Ki) on human O-GlcNAcase was found to be 0.108 µM.
The same measure, in the same setting: in the case of `CC(=O)NC[C@@H]1[C@@H](O)[C@H](O)[C@@H](CO)N1Cc1ccc(-c2ccccc2)cc1` [Example 9, N-(((2R,3R,4R,5R)-1-([1,1′-biphenyl]-4-ylmethyl)-3,4-dihydroxy-5-(hydroxymethyl)pyrrolidin-2-yl)methyl)acetamide] it was 4.56 µM; in that of `CCCCN1C(CNC(C)=O)[C@@H](O)[C@H](O)[C@H]1CO` (stereo partly drawn) [reference compound], 1.03 µM.
The same measure, in the same setting: the figure for `CC(=O)NCC1[C@@H](O)[C@H](O)[C@@H](CO)N1CCc1ccccc1` (stereo partly drawn) [reference compound] is 0.343 µM; for `CNC(=O)C[C@@H]1[C@H](O)[C@H](O)[C@@H](CO)N1CCCc1ccccc1` [Example 13, 2-((2R,3S,4R,5R)-3,4-dihydroxy-5-(hydroxymethyl)-1-(3-phenylpropyl)pyrrolidin-2-yl)-N-methylacetamide] it is 0.0083 µM.
On the same count and under the same terms, the figure for `CCCN1C(CNC(C)=O)[C@@H](O)[C@H](O)[C@H]1CO` (stereo partly drawn) [reference compound] is 2.02 µM.
For `CC(=O)NC[C@@H]1[C@@H](O)[C@H](O)[C@@H](CO)N1Cc1cccnc1` [Example 7, N-(((2R,3R,4R,5R)-3,4-dihydroxy-5-(hydroxymethyl)-1-(pyridin-3-ylmethyl)pyrrolidin-2-yl)methyl)acetamide], the Ki at human O-GlcNAcase amounted to 2.69 µM.
The same measure, in the same setting: the figure for `CC(=O)NC[C@@H]1[C@@H](O)[C@H](O)[C@@H](CO)N1CCCc1ccccc1` [Example 1, N-(((2R,3R,4R,5R)-3,4-dihydroxy-5-(hydroxymethyl)-1-(3-phenylpropyl)pyrrolidin-2-yl)methyl)acetamide] is 0.369 µM.
By Papp is commonly meant a coefficient for how fast a substance crosses the barrier. As for `CCCCCCN1C(CNC(C)=O)[C@@H](O)[C@H](O)[C@H]1CO` (stereo partly drawn) [reference compound], in series [1], the Papp at 3 h, 1 μM is below 1.6 ×10⁻⁶ cm/s. Also, the Ki at human O-GlcNAcase turned out to be 0.619 µM.
As for `CCNC(=O)C[C@@H]1[C@@H](O)[C@H](O)[C@@H](CO)N1CCC(c1ccccc1)c1ccccc1` [Example 12, 2-((2R,3R,4R,5R)-1-(3,3-diphenylpropyl)-3,4-dihydroxy-5-(hydroxymethyl)pyrrolidin-2-yl)-N-ethylacetamide], on human O-GlcNAcase, the Ki is 0.06 µM.
Take `CCNC(=O)C[C@@H]1[C@@H](O)[C@H](O)[C@@H](CO)N1CCCc1ccc(OC)cc1` [Example 11, 2-((2R,3R,4R,5R)-3,4-dihydroxy-5-(hydroxymethyl)-1-(3-(4-methoxyphenyl)propyl)pyrrolidin-2-yl)-N-ethylacetamide]: the Ki at human O-GlcNAcase turned out to be 0.132 µM.
For the compound `CC(=O)NC[C@@H]1[C@@H](O)[C@H](O)[C@@H](CO)N1CCC(c1ccccc1)c1ccccc1` [Example 6, N-(((2R,3R,4R,5R)-1-(3,3-diphenylpropyl)-3,4-dihydroxy-5-(hydroxymethyl)pyrrolidin-2-yl)methyl)acetamide], the Ki at human O-GlcNAcase turned out to be 0.041 µM.
Still for that read-out and setting: in the case of `CNC(=O)C[C@@H]1[C@@H](O)[C@H](O)[C@@H](CO)N1CCCc1ccccc1` [Example 10, 2-((2R,3R,4R,5R)-3,4-dihydroxy-5-(hydroxymethyl)-1-(3-phenylpropyl)pyrrolidin-2-yl)-N-methylacetamide] it was 0.055 µM.
Take `CC(=O)NC[C@@H]1[C@@H](O)[C@H](O)[C@@H](CO)N1CCCCc1ccccc1` [Example 5, N-(((2R,3R,4R,5R)-3,4-dihydroxy-5-(hydroxymethyl)-1-(4-phenylbutyl)pyrrolidin-2-yl)methyl)acetamide]: the Papp at 3 h, 1 μM in series [1] is below 1.6 ×10⁻⁶ cm/s. For the same compound, the Ki at human O-GlcNAcase is 0.172 µM.
Take `COc1ccc(CCCN2[C@H](CO)[C@@H](O)[C@H](O)[C@H]2CNC(C)=O)cc1` [Example 2, N-(((2R,3R,4R,5R)-3,4-dihydroxy-5-(hydroxymethyl)-1-(3-(4-methoxyphenyl)propyl)pyrrolidin-2-yl)methyl)acetamide]: the Papp at 3 h, 1 μM in series [1] was 2.6 ×10⁻⁶ cm/s. In addition, the Ki on human O-GlcNAcase is 0.106 µM.
For `CC(=O)NC[C@@H]1[C@@H](O)[C@H](O)[C@@H](CO)N1CCc1ccc(-c2ccccc2)cc1` [Example 4, N-(((2R,3R,4R,5R)-1-(2-([1,1′-biphenyl]-4-yl)ethyl)-3,4-dihydroxy-5-(hydroxymethyl)pyrrolidin-2-yl)methyl)acetamide] the same measures were 4.4 ×10⁻⁶ cm/s and 0.079 µM.
